Data on one compound can be found in ChEMBL document CHEMBL4321794, “Discovery and Optimization of 2-Arylquinazolin-4-ones into a Potent and Selective Tankyrase Inhibitor Modulating Wnt Pathway Activity” (J Med Chem, 2019).

A short description of series [1]: Clearance in mouse. The format is ADME, organism-based. Conditions: in vivo.
The target in series [2] is T1, Poly [ADP-ribose] polymerase 1 (Homo sapiens, UniProt P09874). The experiment in a line: Inhibition of recombinant human full-length Myc/His-tagged Parp-1 expressed in baculovirus infected Sf21 insect cells assessed as reduction in auto-PARsylation using activated DNA as substrate incubated for 150 mins in presence of NAD and bio-NAD as co-substrate by TR-FRET assay.
T1 sequence (P09874 whole entry): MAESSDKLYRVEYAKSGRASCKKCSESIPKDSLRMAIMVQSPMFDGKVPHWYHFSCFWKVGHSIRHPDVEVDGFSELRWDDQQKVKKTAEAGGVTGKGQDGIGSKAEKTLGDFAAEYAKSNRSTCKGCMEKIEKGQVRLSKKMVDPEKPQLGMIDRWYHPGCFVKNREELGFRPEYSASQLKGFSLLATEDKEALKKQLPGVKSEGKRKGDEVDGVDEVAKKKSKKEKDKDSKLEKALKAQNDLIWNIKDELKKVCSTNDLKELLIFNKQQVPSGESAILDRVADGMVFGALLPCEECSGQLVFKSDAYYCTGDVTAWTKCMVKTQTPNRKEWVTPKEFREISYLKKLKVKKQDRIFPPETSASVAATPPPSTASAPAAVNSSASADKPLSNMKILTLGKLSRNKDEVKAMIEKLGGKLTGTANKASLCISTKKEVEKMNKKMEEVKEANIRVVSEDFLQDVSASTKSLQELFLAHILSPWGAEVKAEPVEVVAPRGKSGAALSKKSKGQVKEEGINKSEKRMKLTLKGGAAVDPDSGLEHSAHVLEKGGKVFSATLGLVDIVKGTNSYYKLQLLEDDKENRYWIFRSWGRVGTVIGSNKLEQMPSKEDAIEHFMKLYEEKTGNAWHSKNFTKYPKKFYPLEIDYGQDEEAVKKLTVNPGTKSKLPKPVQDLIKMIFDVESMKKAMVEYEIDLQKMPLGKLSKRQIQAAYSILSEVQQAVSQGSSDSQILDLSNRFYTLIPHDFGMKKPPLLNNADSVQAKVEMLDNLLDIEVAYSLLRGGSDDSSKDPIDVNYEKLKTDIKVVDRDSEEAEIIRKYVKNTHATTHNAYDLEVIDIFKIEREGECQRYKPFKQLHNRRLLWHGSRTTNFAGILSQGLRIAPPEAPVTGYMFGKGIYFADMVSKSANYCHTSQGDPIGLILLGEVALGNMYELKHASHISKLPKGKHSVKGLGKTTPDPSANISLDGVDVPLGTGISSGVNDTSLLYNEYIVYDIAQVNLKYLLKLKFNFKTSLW

The nature of series [3]: Thermodynamic solubility in phosphate buffer at pH 7.4 at 2 mg incubated under shaking condition for 6 hrs followed by rechecking and readjusting pH to 7.4 and further incubated for 18 hrs by HPLC/UV detection method. The settings on record: read-out: Therm_solubility. It counts as physicochemical.
The nature of series [4]: Intrinsic clearance in human liver microsomes assessed per mg protein in presence of NADPH by UPLC analysis. The format is ADME, Microsome. Conditions: read-out: CLH. Background: Liver microsomes are vesicles of endoplasmic reticulum, rich in cytochrome P450 enzymes.
For series [5], the target named is T1, Poly [ADP-ribose] polymerase 1. Put plainly: Inhibition of N-terminal GST-tagged recombinant full length human PARP1 expressed in Baculovirus infected Sf9 cells using biotinylated substrate after 1 hr by chemiluminescence method.
Series [6] concerns the target Protein mono-ADP-ribosyltransferase PARP6 (Homo sapiens, UniProt Q2NL67). Put plainly: Inhibition of N-terminal GST-tagged recombinant human full length PARP6 expressed in Baculovirus infected Sf9 cells using biotinylated substrate after 1 hr by chemiluminescence method.
Series [7] has as its target T2, Protein mono-ADP-ribosyltransferase PARP12 (Homo sapiens, UniProt Q9H0J9).
T2 sequence (Q9H0J9 whole entry): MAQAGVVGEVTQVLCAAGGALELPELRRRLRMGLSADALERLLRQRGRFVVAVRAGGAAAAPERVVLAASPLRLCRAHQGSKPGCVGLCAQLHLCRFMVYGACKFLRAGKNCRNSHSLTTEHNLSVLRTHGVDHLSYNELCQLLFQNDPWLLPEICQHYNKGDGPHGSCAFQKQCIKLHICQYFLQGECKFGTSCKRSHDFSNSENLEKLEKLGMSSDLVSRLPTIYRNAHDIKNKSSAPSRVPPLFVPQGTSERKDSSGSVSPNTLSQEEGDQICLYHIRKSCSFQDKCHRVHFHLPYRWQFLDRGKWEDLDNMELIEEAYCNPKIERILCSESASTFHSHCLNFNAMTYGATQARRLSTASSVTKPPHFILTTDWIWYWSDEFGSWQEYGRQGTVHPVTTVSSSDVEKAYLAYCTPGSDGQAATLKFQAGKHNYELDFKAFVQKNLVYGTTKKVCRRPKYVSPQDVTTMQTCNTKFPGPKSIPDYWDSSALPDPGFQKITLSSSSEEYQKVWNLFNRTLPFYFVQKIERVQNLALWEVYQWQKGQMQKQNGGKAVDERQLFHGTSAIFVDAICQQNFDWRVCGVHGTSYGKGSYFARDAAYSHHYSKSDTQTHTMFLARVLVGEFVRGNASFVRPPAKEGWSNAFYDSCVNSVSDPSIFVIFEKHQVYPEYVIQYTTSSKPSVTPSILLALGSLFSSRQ
The experiment in a line: Inhibition of human N-terminal His/GST-tagged PARP12 (500 to 701 residues) expressed in baculovirus infected Sf9 insect cells using biotinylated substrate by chemiluminescence method.

The target in series [8] is T3, Protein mono-ADP-ribosyltransferase PARP15 (Homo sapiens, UniProt Q460N3).
T3 sequence (Q460N3 whole entry): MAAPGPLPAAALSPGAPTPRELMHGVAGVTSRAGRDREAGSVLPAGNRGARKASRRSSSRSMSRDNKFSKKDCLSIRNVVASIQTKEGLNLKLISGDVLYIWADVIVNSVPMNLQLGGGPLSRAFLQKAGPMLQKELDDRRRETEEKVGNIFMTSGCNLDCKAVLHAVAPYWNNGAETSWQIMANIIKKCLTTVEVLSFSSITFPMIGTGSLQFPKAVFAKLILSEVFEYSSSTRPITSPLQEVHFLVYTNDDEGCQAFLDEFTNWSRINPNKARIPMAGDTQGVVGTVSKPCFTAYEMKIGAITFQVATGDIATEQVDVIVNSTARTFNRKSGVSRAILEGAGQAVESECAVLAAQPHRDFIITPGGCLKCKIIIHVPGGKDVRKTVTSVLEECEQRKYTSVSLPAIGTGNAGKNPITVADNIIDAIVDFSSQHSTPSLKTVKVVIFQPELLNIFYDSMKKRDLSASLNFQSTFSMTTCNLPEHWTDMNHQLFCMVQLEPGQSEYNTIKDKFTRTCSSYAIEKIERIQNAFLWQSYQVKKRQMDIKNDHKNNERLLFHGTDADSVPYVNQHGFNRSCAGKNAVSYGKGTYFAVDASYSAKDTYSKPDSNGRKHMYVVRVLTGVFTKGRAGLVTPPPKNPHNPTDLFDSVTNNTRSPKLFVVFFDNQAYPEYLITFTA
Put plainly: Inhibition of human N-terminal GST-tagged PARP15 (221 to 444 residues) expressed in Escherichia coli using biotinylated substrate by chemiluminescence method.

Series [9] has as its target T4, Protein mono-ADP-ribosyltransferase PARP3 (Homo sapiens, UniProt Q9Y6F1).
T4 sequence (Q9Y6F1 whole entry): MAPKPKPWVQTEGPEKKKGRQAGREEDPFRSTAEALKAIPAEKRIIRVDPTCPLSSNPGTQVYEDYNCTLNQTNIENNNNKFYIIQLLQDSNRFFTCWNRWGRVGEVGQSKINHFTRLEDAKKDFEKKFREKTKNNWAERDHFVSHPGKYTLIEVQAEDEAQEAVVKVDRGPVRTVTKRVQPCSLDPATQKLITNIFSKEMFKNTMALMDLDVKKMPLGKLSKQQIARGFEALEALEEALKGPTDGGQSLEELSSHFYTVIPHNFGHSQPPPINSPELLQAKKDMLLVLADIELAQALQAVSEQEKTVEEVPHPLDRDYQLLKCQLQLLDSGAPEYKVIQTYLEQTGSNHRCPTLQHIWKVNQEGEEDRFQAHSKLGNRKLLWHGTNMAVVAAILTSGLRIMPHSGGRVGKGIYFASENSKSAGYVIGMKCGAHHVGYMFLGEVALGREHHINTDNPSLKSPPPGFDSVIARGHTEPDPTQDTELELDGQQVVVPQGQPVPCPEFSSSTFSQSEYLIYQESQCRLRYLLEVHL
The experiment in a line: Inhibition of N-terminal GST-tagged recombinant full length human PARP3 expressed in Baculovirus infected Sf9 cells using biotinylated substrate after 1 hr by chemiluminescence method.

Series [10] is described as follows: Intrinsic clearance in mouse hepatocytes assessed per million cells. It counts as ADME, cell-based, Hepatocyte. Conditions: read-out: CLH.
The nature of series [11]: Protein binding in mouse plasma assessed as unbound fraction at 30 mg/kg, po. The format is ADME, organism-based.
A short description of series [12]: Time at which free-drug concentration exceeds in vitro cellular EC50 for inhibition of tankyrase 1/2 in human DLD1 cells assessed as increase in axin2 accumulation in mouse xenografted with human DLD1 at 30 mg/kg, po administered via gavage. It counts as organism-based. The settings on record: in vivo. A general note: Xenograft models place foreign cells or tissue in a host animal.

Series [13] is described as follows: Half-life in mouse. It counts as ADME, organism-based. The settings on record: in vivo.
The test system of series [14] is Mus musculus. The experiment in a line: Ex vivo inhibition of tankyrase 1/2 in human DLD1 cells xenografted in immunodeficient athymic nude mouse assessed as increase in tankyrase level in tumor lysates at 10 mg/kg, po administered via gavage measured after 12 hrs by luminex based bead assay. The settings on record: Neoplasm, Lysate. It counts as functional, organism-based.

In series [15] the test system is Mus musculus. Put plainly: Ex vivo inhibition of tankyrase 1/2 in human DLD1 cells xenografted in immunodeficient athymic nude mouse assessed as increase in axin-2 level in tumor lysates at 10 mg/kg, po administered via gavage measured after 12 hrs by luminex based bead assay. It counts as functional, organism-based. The settings on record: Neoplasm, Lysate.

Converted amounts (≈) assume the structure as drawn. The source made the active and inactive calls. The rule behind the calls is not given here.

Protein mono-ADP-ribosyltransferase PARP6, sequence (Q2NL67 whole entry): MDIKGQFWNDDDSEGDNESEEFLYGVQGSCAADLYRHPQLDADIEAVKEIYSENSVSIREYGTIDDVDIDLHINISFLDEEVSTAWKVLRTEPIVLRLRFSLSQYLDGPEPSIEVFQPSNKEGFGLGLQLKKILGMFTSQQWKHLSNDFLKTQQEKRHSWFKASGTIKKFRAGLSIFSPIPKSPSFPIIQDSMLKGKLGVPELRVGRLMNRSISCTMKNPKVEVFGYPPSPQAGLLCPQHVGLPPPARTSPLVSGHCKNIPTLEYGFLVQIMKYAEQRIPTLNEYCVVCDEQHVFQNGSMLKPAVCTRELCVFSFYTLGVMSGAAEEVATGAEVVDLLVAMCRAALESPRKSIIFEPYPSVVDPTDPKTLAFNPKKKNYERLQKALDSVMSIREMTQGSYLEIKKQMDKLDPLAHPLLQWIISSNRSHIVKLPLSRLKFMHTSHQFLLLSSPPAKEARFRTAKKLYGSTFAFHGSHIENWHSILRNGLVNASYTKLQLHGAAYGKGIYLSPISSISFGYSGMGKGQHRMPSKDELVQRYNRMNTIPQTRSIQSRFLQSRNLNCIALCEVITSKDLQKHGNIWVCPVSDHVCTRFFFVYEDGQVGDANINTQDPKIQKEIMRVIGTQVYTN

As for `CC(C)(O)c1ccc(-c2nc3c(F)cc(F)cc3c(=O)[nH]2)cc1`, the clearance (in general, a measure of how efficiently the substance is removed, as volume per time) in series [1] was 6.83 mL/min/kg. Further, the IC50 (as a rule, the concentration that gives 50% inhibition) in [2] is 0.782 µM; in series [5] it was 0.71 µM; in [6] it was over 10 µM; in series [7], over 10 µM; in [8], over 10 µM; in series [9], 1.9 µM. For the same compound, the solubility thermodynamic at 24 h in series [3] turned out to be 31 µg/mL (≈ 98 µM). Also, the microsomal CLint in series [4] was under 10 µL/min/mg. Moreover, the hepatocyte CLint in series [10] was found to be 15.2 µL/min/1e6 cells. For the same compound, the fraction unbound (in general, the share of the substance not bound to proteins or other matrix) in series [11] turned out to be 0.086. Besides, the “T>fEC50” value in series [12] was “>= 12 hr”. For the same compound, in series [13], the half-life (as a rule, the time in which the quantity being followed falls by half) was 1.4 h. The inhibition result in series [14] and in [15] was “Active” each time.
